Like-named read-outs stand apart in the source and are kept apart here.
Key:
[1] = estimated from self-administration; cited from earlier work
[2] = molecular target: α7–5HT3 mutant chimeric channels (Homo sapiens, UniProt P36544, S172V); experiment: cell-based; assay type: cell-based, human α7 nAChR LBD, mouse 5HT3 IPD
[3] = molecular target: α7–5HT3 mutant chimeric channels (Homo sapiens, UniProt P36544, S170Y); experiment: cell-based; assay type: cell-based, human α7 nAChR LBD, mouse 5HT3 IPD
[4] = molecular target: α7–5HT3 mutant chimeric channels (Homo sapiens, UniProt P36544, L141A); experiment: cell-based; assay type: cell-based, human α7 nAChR LBD, mouse 5HT3 IPD
[5] = molecular target: α7–5HT3 mutant chimeric channels (Homo sapiens, UniProt P36544, S170L); experiment: cell-based; assay type: cell-based, human α7 nAChR LBD, mouse 5HT3 IPD
[6] = molecular target: α7–5HT3 mutant chimeric channels (Homo sapiens, UniProt P36544, L141S); experiment: cell-based; assay type: cell-based, human α7 nAChR LBD, mouse 5HT3 IPD
Chain of α7–5HT3 mutant chimeric channels (Homo sapiens, UniProt P36544, L141S) (P36544 23-224 L141S): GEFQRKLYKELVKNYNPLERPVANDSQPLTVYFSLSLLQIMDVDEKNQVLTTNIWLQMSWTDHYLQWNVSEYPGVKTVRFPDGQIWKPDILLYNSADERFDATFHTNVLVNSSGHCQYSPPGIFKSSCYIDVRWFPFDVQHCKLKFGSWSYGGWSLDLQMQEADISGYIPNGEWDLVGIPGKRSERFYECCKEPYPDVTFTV
Chain of α7–5HT3 mutant chimeric channels (Homo sapiens, UniProt P36544, L141S) (P23979 242-489, further chain): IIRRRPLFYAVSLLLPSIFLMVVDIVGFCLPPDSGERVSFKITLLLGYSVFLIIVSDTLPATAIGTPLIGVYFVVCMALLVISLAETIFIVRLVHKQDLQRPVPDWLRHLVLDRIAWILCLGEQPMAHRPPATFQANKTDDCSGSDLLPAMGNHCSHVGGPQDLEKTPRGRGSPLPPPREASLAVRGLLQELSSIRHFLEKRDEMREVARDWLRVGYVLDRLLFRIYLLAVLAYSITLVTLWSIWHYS

[7] = molecular target: α7–5HT3 mutant chimeric channels (Homo sapiens, UniProt P36544, Q139P); experiment: cell-based; assay type: cell-based, human α7 nAChR LBD, mouse 5HT3 IPD
Chain of α7–5HT3 mutant chimeric channels (Homo sapiens, UniProt P36544, Q139P) (P23979 242-489): as the sequence (P23979 242-489, further chain) above
Chain of α7–5HT3 mutant chimeric channels (Homo sapiens, UniProt P36544, Q139P) (P36544 23-224 Q139P): as the sequence (P36544 23-224 L141S) above, with Q117P, S119L counted along it

[8] = molecular target: α7–5HT3 mutant chimeric channels (Homo sapiens, UniProt P36544, W77L); experiment: cell-based; assay type: cell-based, human α7 nAChR LBD, mouse 5HT3 IPD
[9] = molecular target: α7–5HT3 mutant chimeric channels (Homo sapiens, UniProt P36544, Q139K); experiment: cell-based; assay type: cell-based, human α7 nAChR LBD, mouse 5HT3 IPD
Chain of α7–5HT3 mutant chimeric channels (Homo sapiens, UniProt P36544, Q139K) (P23979 242-489): as the sequence (P23979 242-489, further chain) above
Chain of α7–5HT3 mutant chimeric channels (Homo sapiens, UniProt P36544, Q139K) (P36544 23-224 Q139K): as the sequence (P36544 23-224 L141S) above, with Q117K, S119L counted along it

[10] = molecular target: α7–5HT3 mutant chimeric channels (Homo sapiens, UniProt P36544, L141P); experiment: cell-based; assay type: cell-based, human α7 nAChR LBD, mouse 5HT3 IPD
[11] = molecular target: α7–5HT3 mutant chimeric channels (Homo sapiens, UniProt P36544, S170Q); experiment: cell-based; assay type: cell-based, human α7 nAChR LBD, mouse 5HT3 IPD
[12] = molecular target: α7–5HT3 mutant chimeric channels (Homo sapiens, UniProt P36544, Q139F); experiment: cell-based; assay type: cell-based, human α7 nAChR LBD, mouse 5HT3 IPD
Chain of α7–5HT3 mutant chimeric channels (Homo sapiens, UniProt P36544, Q139F) (P36544 23-224 Q139F): as the sequence (P36544 23-224 L141S) above, with Q117F, S119L counted along it
Chain of α7–5HT3 mutant chimeric channels (Homo sapiens, UniProt P36544, Q139F) (P23979 242-489, further chain): as the sequence (P23979 242-489, further chain) above

[13] = molecular target: α7–5HT3 mutant chimeric channels (Homo sapiens, UniProt P36544, Q139D); experiment: cell-based; assay type: cell-based, human α7 nAChR LBD, mouse 5HT3 IPD
Chain of α7–5HT3 mutant chimeric channels (Homo sapiens, UniProt P36544, Q139D) (P23979 242-489): as the sequence (P23979 242-489, further chain) above
Chain of α7–5HT3 mutant chimeric channels (Homo sapiens, UniProt P36544, Q139D) (P36544 23-224 Q139D): as the sequence (P36544 23-224 L141S) above, with Q117D, S119L counted along it

[14] = molecular target: α7–5HT3 mutant chimeric channels (Homo sapiens, UniProt P36544, L141G); experiment: cell-based; assay type: cell-based, human α7 nAChR LBD, mouse 5HT3 IPD
[15] = molecular target: α7–5HT3 mutant chimeric channels (Homo sapiens, UniProt P36544, S172L); experiment: cell-based; assay type: cell-based, human α7 nAChR LBD, mouse 5HT3 IPD
[16] = molecular target: α7–5HT3 mutant chimeric channels (Homo sapiens, UniProt P36544, S170N); experiment: cell-based; assay type: cell-based, human α7 nAChR LBD, mouse 5HT3 IPD
[17] = molecular target: α7–5HT3 mutant chimeric channels (Homo sapiens, UniProt P36544, L141F); experiment: cell-based; assay type: cell-based, human α7 nAChR LBD, mouse 5HT3 IPD
Chain of α7–5HT3 mutant chimeric channels (Homo sapiens, UniProt P36544, L141F) (P36544 23-224 L141F): as the sequence (P36544 23-224 L141S) above, with S119F counted along it
Chain of α7–5HT3 mutant chimeric channels (Homo sapiens, UniProt P36544, L141F) (P23979 242-489, further chain): as the sequence (P23979 242-489, further chain) above

[18] = molecular target: α7–5HT3 mutant chimeric channels (Homo sapiens, UniProt P36544, S170W); experiment: cell-based; assay type: cell-based, human α7 nAChR LBD, mouse 5HT3 IPD
[19] = molecular target: α7–5HT3 mutant chimeric channels (Homo sapiens, UniProt P36544, Q79A); experiment: cell-based; assay type: cell-based, human α7 nAChR LBD, mouse 5HT3 IPD
Chain of α7–5HT3 mutant chimeric channels (Homo sapiens, UniProt P36544, Q79A) (P23979 242-489): as the sequence (P23979 242-489, further chain) above
Chain of α7–5HT3 mutant chimeric channels (Homo sapiens, UniProt P36544, Q79A) (P36544 23-224 Q79A): as the sequence (P36544 23-224 L141S) above, with Q57A, S119L counted along it

[20] = molecular target: α7–5HT3 mutant chimeric channels (Homo sapiens, UniProt P36544, Q139V); experiment: cell-based; assay type: cell-based, human α7 nAChR LBD, mouse 5HT3 IPD
Chain of α7–5HT3 mutant chimeric channels (Homo sapiens, UniProt P36544, Q139V) (P23979 242-489): as the sequence (P23979 242-489, further chain) above
Chain of α7–5HT3 mutant chimeric channels (Homo sapiens, UniProt P36544, Q139V) (P36544 23-224 Q139V): as the sequence (P36544 23-224 L141S) above, with Q117V, S119L counted along it

[21] = molecular target: α7–5HT3 mutant chimeric channels (Homo sapiens, UniProt P36544, Q79G); experiment: cell-based; assay type: cell-based, human α7 nAChR LBD, mouse 5HT3 IPD
[22] = molecular target: α7–5HT3 mutant chimeric channels (Homo sapiens, UniProt P36544, Q139R); experiment: cell-based; assay type: cell-based, human α7 nAChR LBD, mouse 5HT3 IPD
Chain of α7–5HT3 mutant chimeric channels (Homo sapiens, UniProt P36544, Q139R) (P23979 242-489): as the sequence (P23979 242-489, further chain) above
Chain of α7–5HT3 mutant chimeric channels (Homo sapiens, UniProt P36544, Q139R) (P36544 23-224 Q139R): as the sequence (P36544 23-224 L141S) above, with Q117R, S119L counted along it

[23] = molecular target: α7–5HT3 mutant chimeric channels (Homo sapiens, UniProt P36544, Q139M); experiment: cell-based; assay type: cell-based, human α7 nAChR LBD, mouse 5HT3 IPD
[24] = molecular target: α7–5HT3 mutant chimeric channels (Homo sapiens, UniProt P36544, L131G); experiment: cell-based; assay type: cell-based, human α7 nAChR LBD, mouse 5HT3 IPD
Chain of α7–5HT3 mutant chimeric channels (Homo sapiens, UniProt P36544, L131G) (P36544 23-224 L131G): as the sequence (P36544 23-224 L141S) above, with L109G, S119L counted along it
Chain of α7–5HT3 mutant chimeric channels (Homo sapiens, UniProt P36544, L131G) (P23979 242-489, further chain): as the sequence (P23979 242-489, further chain) above

[25] = molecular target: α7–5HT3 mutant chimeric channels (Homo sapiens, UniProt P36544, S172K); experiment: cell-based; assay type: cell-based, human α7 nAChR LBD, mouse 5HT3 IPD
[26] = molecular target: α7–5HT3 mutant chimeric channels (Homo sapiens, UniProt P36544, S170F); experiment: cell-based; assay type: cell-based, human α7 nAChR LBD, mouse 5HT3 IPD

COC(=O)[C@H]1[C@@H](OC(=O)c2ccccc2)C[C@@H]2CC[C@H]1N2C [cocaine]
2.35 µM: EC50 [14]
6 µM: EC50 [5]
> 30 µM: EC50 [2] | EC50 [3] | EC50 [6] | EC50 ([6]; read-out: EC50 at α75HT3 L141S, sheet 1d, single determinations) | EC50 [7] | EC50 ([7]; read-out: EC50 at a7 5HT3 Q139P, Avg, sheet 1d, Avg) | EC50 [8] | EC50 ([8]; read-out: EC50 at a7 5HT3 W77L, Avg, sheet 1d, Avg) | EC50 [9] | EC50 ([9]; read-out: EC50 at a7 5HT3 Q139K, Avg, sheet 1d, Avg) | EC50 [10] | EC50 ([10]; read-out: EC50 at α75HT3 L141P, Avg, sheet 1d, Avg) | EC50 [11] | EC50 [12] | EC50 ([12]; read-out: EC50 at a7 5HT3 Q139F, Avg, sheet 1d, Avg) | EC50 [13] | EC50 ([13]; read-out: EC50 at a7 5HT3 Q139D, Avg, sheet 1d, Avg) | EC50 [15] | EC50 [16] | EC50 [17] | EC50 ([17]; read-out: EC50 at α75HT3 L141F, sheet 1d, single determinations) | EC50 [18] | EC50 [19] | EC50 ([19]; read-out: EC50 at a7 5HT3 Q79A, sheet 1d, single determinations) | EC50 [20] | EC50 ([20]; read-out: EC50 at a7 5HT3 Q139V, Avg, sheet 1d, Avg) | EC50 [21] | EC50 ([21]; read-out: EC50 at a7 5HT3 Q79G, sheet 1d, single determinations) | EC50 [22] | EC50 ([22]; read-out: EC50 at a7 5HT3 Q139R, Avg, sheet 1d, Avg) | EC50 [23] | EC50 ([23]; read-out: EC50 at a7 5HT3 Q139M, Avg, sheet 1d, Avg) | EC50 [24] | EC50 ([24]; read-out: EC50 at α75HT3 L131G, sheet 1d, single determinations) | EC50 [25] | EC50 [26]
3.5 µM: EC50 [4]
2.5 to 20 µM: brain cocaine concentrations [1]

From publication PMC12527922, “Cocaine chemogenetics blunts drug-seeking by synthetic physiology” (Nature, 2025)
